Experiments:
[1] = molecular target: Calcium/calmodulin-dependent protein kinase type 1G (Homo sapiens) (UniProt Q96NX5); settings: Compound concentration 1.0 uM
[2] = molecular target: Serine/threonine-protein kinase Nek7 (Homo sapiens) (UniProt Q8TDX7); assay: NEK7 DUNDEE kinase screen (BI); settings: Compound concentration 10.0 uM
[3] = molecular target: Serine/threonine-protein kinase D2 (Homo sapiens) (UniProt Q9BZL6); settings: Compound concentration 1.0 uM
[4] = molecular target: Cyclin-dependent kinase 19 (Homo sapiens) (UniProt Q9BWU1); settings: Compound concentration 1.0 uM
[5] = molecular target: Tyrosine-protein kinase CSK (Homo sapiens) (UniProt P41240); assay: CSK DUNDEE kinase screen (BI); settings: Compound concentration 10.0 uM
[6] = molecular target: T1, Interleukin-1 receptor-associated kinase 3 (Homo sapiens) (UniProt Q9Y616)
T1 sequence (whole entry): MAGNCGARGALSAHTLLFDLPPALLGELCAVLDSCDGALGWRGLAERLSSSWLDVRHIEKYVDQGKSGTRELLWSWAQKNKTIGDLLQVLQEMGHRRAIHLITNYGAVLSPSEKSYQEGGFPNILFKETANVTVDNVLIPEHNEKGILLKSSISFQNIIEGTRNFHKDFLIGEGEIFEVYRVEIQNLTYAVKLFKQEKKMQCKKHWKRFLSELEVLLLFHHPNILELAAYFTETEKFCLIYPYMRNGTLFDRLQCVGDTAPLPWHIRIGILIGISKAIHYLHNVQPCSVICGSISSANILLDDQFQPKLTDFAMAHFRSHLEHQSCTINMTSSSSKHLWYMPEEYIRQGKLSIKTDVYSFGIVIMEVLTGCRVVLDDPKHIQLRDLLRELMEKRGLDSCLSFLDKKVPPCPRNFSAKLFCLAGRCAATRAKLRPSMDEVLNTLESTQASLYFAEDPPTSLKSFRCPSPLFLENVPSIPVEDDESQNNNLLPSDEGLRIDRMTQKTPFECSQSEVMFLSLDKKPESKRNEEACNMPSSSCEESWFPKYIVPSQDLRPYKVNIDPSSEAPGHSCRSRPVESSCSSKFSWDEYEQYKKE

[7] = molecular target: 5-hydroxytryptamine receptor 1D (Homo sapiens) (UniProt P28221); settings: Compound concentration 10.0 uM
[8] = molecular target: Serine/threonine-protein kinase Sgk1 (Homo sapiens) (UniProt O00141); settings: Compound concentration 1.0 uM
[9] = molecular target: Protein kinase C alpha type (Homo sapiens) (UniProt P17252); assay: PRKCA Invitrogen Lab (UK) kinase screen (BI); settings: Compound concentration 1.0 uM
[10] = molecular target: Mitogen-activated protein kinase 15 (Homo sapiens) (UniProt Q8TD08); assay: MAPK15 (ERK7) Invitrogen Lab (UK) kinase screen (BI); settings: Compound concentration 1.0 uM
[11] = molecular target: SRSF protein kinase 1 (Homo sapiens) (UniProt Q96SB4); settings: Compound concentration 1.0 uM
[12] = molecular target: Epidermal growth factor receptor (Homo sapiens) (UniProt P00533)
[13] = molecular target: Serine/threonine-protein kinase 16 (Homo sapiens) (UniProt O75716); settings: Compound concentration 1.0 uM
[14] = molecular target: Cyclin-G-associated kinase (Homo sapiens, UniProt O14976); assay: NanoBRET (SGC-FFM) (GAK)
[15] = molecular target: Serine/threonine-protein kinase ULK3 (Homo sapiens) (UniProt Q6PHR2); settings: Compound concentration 1.0 uM
[16] = tested on: Receptor-type tyrosine-protein kinase FLT3 (Homo sapiens), P36888 [UNDEFINED MUTATION]; settings: Compound concentration 1.0 uM
[17] = molecular target: Serine/threonine-protein kinase TAO2 (Homo sapiens) (UniProt Q9UL54); settings: Compound concentration 1.0 uM
[18] = molecular target: Myosin light chain kinase 2, skeletal/cardiac muscle (Homo sapiens) (UniProt Q9H1R3); settings: Compound concentration 1.0 uM
[19] = molecular target: PI3-kinase p110-delta/p85-alpha (Homo sapiens) (UniProt P27986+O00329); settings: Compound concentration 1.0 uM
[20] = molecular target: Mitogen-activated protein kinase kinase kinase kinase 5 (Homo sapiens) (UniProt Q9Y4K4); settings: Compound concentration 1.0 uM
[21] = molecular target: CDC7/DBF4 (Cell division cycle 7-related protein kinase/Activator of S phase kinase) (Homo sapiens) (UniProt Q9UBU7+O00311); assay: CDC7/DBF4 Invitrogen Lab (UK) kinase screen (BI); format: protein-complex assay; settings: Compound concentration 1.0 uM
[22] = molecular target: Dual specificity tyrosine-phosphorylation-regulated kinase 3 (Homo sapiens) (UniProt O43781); settings: Compound concentration 1.0 uM
[23] = molecular target: D(2) dopamine receptor (Homo sapiens) (UniProt P14416); settings: Compound concentration 10.0 uM
[24] = molecular target: 5-hydroxytryptamine receptor 4 (Cavia porcellus) (UniProt O70528); settings: Compound concentration 10.0 uM
[25] = molecular target: 3-phosphoinositide-dependent protein kinase 1 (Homo sapiens) (UniProt O15530); settings: Compound concentration 1.0 uM
[26] = molecular target: Casein kinase I (Homo sapiens) (UniProt Q9HCP0+P78368+P48730+P49674+P48729); assay: CK1 DUNDEE kinase screen (BI); format: protein assay; settings: Rattus norvegicus; Compound concentration 10.0 uM
[27] = molecular target: Homeodomain-interacting protein kinase 1 (Homo sapiens) (UniProt Q86Z02); settings: Compound concentration 1.0 uM
[28] = molecular target: Tyrosine-protein kinase Tec (Homo sapiens) (UniProt P42680); settings: Compound concentration 1.0 uM
[29] = molecular target: SRSF protein kinase 3 (Homo sapiens) (UniProt Q9UPE1); settings: Compound concentration 1.0 uM
[30] = molecular target: Serine/threonine-protein kinase MRCK gamma (Homo sapiens) (UniProt Q6DT37); assay: CDC42 BPG (MRCKG) Invitrogen Lab (UK) kinase screen (BI); settings: Compound concentration 1.0 uM
[31] = molecular target: Serine/threonine-protein kinase Nek2 (Homo sapiens) (UniProt P51955); assay: NEK2A DUNDEE kinase screen (BI); settings: Compound concentration 10.0 uM
[32] = molecular target: Proto-oncogene tyrosine-protein kinase Src (Homo sapiens) (UniProt P12931)
[33] = molecular target: Nitric oxide synthase, inducible (Mus musculus) (UniProt P29477); settings: Compound concentration 10.0 uM
[34] = molecular target: Bone morphogenetic protein receptor type-1A (Homo sapiens) (UniProt P36894); settings: Compound concentration 1.0 uM
[35] = molecular target: 5-hydroxytryptamine receptor 2B (Homo sapiens) (UniProt P41595); settings: Compound concentration 10.0 uM

Sequence of Proto-oncogene tyrosine-protein kinase Src (Homo sapiens) (P12931 2-536 limits assumed): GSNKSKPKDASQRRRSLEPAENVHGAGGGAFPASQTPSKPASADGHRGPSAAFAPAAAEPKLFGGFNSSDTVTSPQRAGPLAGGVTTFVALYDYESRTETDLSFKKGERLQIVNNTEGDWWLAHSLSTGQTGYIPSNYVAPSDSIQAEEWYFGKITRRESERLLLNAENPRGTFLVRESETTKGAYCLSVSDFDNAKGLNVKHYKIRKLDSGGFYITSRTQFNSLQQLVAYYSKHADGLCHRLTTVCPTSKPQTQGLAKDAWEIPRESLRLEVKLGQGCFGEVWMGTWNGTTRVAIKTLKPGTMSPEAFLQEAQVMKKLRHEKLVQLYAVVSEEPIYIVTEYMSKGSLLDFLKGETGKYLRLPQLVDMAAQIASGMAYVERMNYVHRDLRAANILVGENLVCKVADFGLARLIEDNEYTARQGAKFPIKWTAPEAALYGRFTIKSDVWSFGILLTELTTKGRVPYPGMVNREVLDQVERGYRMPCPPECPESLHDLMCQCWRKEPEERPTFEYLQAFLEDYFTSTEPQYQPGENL
Sequence of Epidermal growth factor receptor (Homo sapiens) (P00533 whole entry): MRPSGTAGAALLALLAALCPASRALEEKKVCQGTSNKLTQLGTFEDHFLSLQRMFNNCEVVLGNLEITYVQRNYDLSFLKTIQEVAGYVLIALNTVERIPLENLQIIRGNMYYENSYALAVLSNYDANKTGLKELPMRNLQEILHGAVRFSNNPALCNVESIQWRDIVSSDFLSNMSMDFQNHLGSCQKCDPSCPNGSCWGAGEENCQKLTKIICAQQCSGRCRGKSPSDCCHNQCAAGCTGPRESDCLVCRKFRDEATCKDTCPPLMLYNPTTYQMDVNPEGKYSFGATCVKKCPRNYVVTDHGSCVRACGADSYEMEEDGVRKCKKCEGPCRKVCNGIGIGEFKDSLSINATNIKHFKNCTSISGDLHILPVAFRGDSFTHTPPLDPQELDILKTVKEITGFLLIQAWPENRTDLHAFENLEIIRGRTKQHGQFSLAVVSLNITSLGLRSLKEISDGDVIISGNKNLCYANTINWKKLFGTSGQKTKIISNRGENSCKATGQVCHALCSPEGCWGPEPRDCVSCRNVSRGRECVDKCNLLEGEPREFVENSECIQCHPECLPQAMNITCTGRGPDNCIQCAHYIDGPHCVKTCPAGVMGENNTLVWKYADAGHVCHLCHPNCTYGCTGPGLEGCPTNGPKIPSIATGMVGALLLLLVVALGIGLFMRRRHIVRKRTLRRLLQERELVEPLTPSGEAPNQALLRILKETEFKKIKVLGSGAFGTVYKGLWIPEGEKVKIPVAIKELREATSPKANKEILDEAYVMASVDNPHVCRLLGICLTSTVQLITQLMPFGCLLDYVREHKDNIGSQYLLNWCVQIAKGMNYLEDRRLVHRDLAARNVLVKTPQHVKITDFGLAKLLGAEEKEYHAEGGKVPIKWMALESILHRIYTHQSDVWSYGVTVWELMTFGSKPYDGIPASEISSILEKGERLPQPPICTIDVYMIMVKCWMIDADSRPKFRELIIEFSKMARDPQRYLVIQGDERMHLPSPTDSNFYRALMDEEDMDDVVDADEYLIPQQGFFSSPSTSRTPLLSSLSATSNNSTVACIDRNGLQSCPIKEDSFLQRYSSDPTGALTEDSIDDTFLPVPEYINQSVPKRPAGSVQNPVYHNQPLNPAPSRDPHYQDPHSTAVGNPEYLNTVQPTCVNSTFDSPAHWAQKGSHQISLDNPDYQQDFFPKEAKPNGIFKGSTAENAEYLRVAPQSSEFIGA
Sequence of Dual specificity tyrosine-phosphorylation-regulated kinase 3 (Homo sapiens) (O43781 whole entry): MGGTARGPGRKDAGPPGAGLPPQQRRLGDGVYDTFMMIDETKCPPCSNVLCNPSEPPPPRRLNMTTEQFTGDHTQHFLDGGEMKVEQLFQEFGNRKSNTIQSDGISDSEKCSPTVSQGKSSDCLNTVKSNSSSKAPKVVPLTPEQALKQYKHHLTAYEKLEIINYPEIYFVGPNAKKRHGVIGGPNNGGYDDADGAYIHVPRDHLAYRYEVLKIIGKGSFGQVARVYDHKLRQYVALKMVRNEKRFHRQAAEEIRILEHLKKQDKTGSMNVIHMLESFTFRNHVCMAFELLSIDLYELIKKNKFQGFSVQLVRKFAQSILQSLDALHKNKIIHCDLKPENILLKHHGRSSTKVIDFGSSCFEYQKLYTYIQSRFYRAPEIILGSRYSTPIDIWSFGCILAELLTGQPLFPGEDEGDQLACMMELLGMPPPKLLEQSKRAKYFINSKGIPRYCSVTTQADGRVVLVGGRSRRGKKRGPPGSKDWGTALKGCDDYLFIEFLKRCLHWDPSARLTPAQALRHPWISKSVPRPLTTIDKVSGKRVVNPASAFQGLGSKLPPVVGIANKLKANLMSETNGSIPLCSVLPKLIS
Sequence of Calcium/calmodulin-dependent protein kinase type 1G (Homo sapiens) (Q96NX5 whole entry): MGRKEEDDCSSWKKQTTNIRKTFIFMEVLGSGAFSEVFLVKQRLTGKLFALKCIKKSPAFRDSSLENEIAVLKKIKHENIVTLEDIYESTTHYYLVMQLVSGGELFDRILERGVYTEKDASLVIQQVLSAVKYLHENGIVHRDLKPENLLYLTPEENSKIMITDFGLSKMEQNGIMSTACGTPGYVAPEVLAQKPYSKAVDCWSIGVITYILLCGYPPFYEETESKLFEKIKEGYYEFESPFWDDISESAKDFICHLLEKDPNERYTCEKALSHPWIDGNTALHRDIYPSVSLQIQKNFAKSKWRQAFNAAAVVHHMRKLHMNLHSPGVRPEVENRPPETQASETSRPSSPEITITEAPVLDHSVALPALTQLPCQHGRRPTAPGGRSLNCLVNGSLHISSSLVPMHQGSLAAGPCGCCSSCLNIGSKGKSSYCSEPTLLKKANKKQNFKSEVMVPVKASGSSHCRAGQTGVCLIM
Sequence of Cyclin-G-associated kinase (O14976 whole entry): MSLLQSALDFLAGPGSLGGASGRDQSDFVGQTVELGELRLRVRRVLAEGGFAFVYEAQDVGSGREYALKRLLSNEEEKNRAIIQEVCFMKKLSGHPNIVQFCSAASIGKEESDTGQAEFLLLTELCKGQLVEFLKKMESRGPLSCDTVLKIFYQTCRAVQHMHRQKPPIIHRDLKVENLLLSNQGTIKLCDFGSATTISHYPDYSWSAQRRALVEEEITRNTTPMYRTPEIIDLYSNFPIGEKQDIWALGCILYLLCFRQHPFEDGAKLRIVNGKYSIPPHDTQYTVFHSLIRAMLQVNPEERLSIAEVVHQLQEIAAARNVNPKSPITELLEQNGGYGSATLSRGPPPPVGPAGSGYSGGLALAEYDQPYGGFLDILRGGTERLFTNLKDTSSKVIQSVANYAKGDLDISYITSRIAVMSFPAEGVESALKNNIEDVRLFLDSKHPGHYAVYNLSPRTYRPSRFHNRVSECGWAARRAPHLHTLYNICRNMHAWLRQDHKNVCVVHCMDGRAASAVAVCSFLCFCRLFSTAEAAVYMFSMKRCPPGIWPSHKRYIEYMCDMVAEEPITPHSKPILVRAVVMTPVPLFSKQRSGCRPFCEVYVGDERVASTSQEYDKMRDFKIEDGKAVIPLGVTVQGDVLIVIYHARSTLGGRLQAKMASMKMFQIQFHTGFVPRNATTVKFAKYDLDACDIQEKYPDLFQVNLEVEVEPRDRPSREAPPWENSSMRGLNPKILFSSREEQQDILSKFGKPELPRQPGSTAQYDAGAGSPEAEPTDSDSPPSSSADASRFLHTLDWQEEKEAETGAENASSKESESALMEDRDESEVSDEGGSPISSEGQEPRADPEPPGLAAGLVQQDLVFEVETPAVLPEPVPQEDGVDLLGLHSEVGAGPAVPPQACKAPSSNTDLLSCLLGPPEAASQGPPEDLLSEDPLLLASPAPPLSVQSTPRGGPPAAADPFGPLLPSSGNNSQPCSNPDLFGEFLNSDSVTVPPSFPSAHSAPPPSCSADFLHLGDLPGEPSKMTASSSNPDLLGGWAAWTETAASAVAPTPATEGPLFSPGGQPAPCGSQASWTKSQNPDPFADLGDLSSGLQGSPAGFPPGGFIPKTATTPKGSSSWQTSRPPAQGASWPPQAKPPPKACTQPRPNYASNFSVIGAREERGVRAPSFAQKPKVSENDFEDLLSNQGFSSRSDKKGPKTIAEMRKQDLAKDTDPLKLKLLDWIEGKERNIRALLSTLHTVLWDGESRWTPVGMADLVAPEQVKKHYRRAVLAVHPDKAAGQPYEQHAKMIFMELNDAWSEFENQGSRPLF
Sequence of Tyrosine-protein kinase CSK (Homo sapiens) (P41240 2-450 limits assumed): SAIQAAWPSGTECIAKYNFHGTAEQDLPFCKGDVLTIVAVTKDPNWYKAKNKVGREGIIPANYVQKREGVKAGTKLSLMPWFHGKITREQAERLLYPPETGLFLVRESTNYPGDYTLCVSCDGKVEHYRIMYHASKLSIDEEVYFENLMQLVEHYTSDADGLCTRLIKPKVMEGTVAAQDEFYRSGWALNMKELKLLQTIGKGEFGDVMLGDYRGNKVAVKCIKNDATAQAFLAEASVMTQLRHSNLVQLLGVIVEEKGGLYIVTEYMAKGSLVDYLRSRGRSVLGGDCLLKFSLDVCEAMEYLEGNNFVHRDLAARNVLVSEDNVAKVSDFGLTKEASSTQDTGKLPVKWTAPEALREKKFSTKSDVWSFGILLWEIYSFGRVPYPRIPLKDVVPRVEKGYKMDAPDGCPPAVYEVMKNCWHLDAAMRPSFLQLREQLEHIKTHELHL
Sequence of 5-hydroxytryptamine receptor 4 (Cavia porcellus) (O70528 whole entry): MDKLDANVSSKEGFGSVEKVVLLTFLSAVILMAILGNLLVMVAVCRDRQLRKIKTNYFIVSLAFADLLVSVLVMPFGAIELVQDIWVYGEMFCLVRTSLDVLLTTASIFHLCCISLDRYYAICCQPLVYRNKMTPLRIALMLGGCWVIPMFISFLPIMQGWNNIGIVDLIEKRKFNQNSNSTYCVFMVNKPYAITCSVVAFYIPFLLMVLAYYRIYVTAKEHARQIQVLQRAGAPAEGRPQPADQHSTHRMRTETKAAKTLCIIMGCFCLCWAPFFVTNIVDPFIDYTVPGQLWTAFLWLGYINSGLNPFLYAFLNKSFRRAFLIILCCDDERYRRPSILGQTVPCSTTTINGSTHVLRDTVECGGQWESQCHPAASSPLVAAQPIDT

CCC(F)(F)c1cc(N2CCC(S(C)(=O)=O)CC2)nc2sc(C(N)=O)c(N)c12 [BI-605906] showed a residual activity [1] of 90%, a residual activity [2] of 104% and a residual activity [3] of 95%. The residual activity [4] was 87%, the residual activity [5] was 78.3% and the residual activity ([6]; Compound concentration 0.001 uM) was 93%. For the same compound, the residual activity ([6]; Compound concentration 1.0 uM) was 24%, the residual activity ([6]; Compound concentration 20.0 uM) was 14% and the inhibition [7] was 26.9%. The residual activity [8] was 97%, the residual activity [9] was 85% and the residual activity [10] was 103%. It also gave a residual activity [11] of 99%, a residual activity ([12]; Compound concentration 1.0 uM) of 99% and a residual activity ([12]; Compound concentration 10.0 uM) of 90%. The residual activity [13] was 91%, the IC50 [14] was 6.5 µM (not active) and the residual activity [15] was 95%. The residual activity [16] was 101%, the residual activity [17] was 101% and the residual activity [18] was 98%. For the same compound, the residual activity [19] was 87%, the residual activity [20] was 101% and the residual activity [21] was 88%. It also gave a residual activity [22] of 92%, a residual activity [23] of 100% and a residual activity [24] of 98%. The residual activity [25] was 82%, the residual activity [26] was 68.6% and the residual activity [27] was 101%. It also gave a residual activity [28] of 96%, a residual activity [29] of 99% and a residual activity [30] of 111%. For the same compound, the residual activity [31] was 74.8%, the residual activity ([32]; Compound concentration 1.0 uM) was 79% and the residual activity ([32]; Compound concentration 10.0 uM) was 92%. The residual activity [33] was 108%, the residual activity [34] was 100% and the inhibition [35] was 13.4%.
